Bridge positions count the residues as written; N and C are the ends. Square brackets hold non-standard residues; d marks the D form. Peptide text beside a SMILES is read from it.
Legend:
Bio-hPADI4 wt = biological target: T1, Bio-hPADI4 wt (Homo sapiens, UniProt Q9UM07); assay: Surface plasmon resonance (SPR), single cycle kinetics, peptide binding to immobilised PADI4
T1 construct: PADI4 (residues 1–663); Avi-Tag (biotinylated by BirA); made in house; host or cells: E. coli BL21-DE3 co-expressing BirA
Procedure: Single cycle kinetics analysis by SPR was carried out using a Biacore T200 or S200 and a Biotin CAPture kit, series S (Cytiva). […] 50 mM HEPES (pH 7.5), 150 mM NaCl, 2 mM DTT, 0.05 % Tween-20, 0.1% DMSO and variable CaCl2 (as specified) was used as the running buffer and experiments performed at 25 °C.
Samples were run with 120 s contact time, and variable dissociation time (often 360 s). Data were analysed using the Biacore T200 analysis software; data was fitted to a 1:1 binding model accounting for baseline drift where necessary. Data are presented as the average ± standard deviation of at least two independent replicates.

hPADI4 = biological target: T2, hPADI4 (Homo sapiens, UniProt Q9UM07); assay: COLDER assay, inhibition of PADI4 at 10 mM CaCl2 (substrate BAEE); assay type: biochemical; conditions: COLDER, 10 mM CaCl2, peptide 10–0.0003 µM
T2 construct: PADI4 (residues 1–663); Avi-Tag (unbiotinylated); made in house; host or cells: E. coli BL21(DE3) without BirA
Procedure: PADI4 activity was assessed using the COLDER assay[43] that measures the formation of urea-containing compounds (e.g. citrulline). The reaction was carried out in a 96-well plate with a final volume of 50 µl. His-PADI4 (50 nM) was incubated with different concentrations of peptides (100 µM to 0.3 nM) in the presence of CaCl2 (from 10 mM to 0.001 mM as specified) for 10 min. The reaction was started by the addition of 10 mM N^α-Benzoyl-L-arginine ethyl ester hydrochloride (BAEE, Merck). After 30 min, the reaction was quenched with EDTA (50 mM final concentration). For colour development, 200 µl of COLDER solution, consisting of 1 volume of solution A (80 mM diacetyl monoxime/2,3-butanedione monoxime (Merck) and 2 mM thiosemicarbazide (Acros Organics)) and 3 volumes of solution B (3 M H3PO4, 6 M H2SO4 and 2 mM NH4Fe(SO4)2) were added to each well and the mixture was heated at 95 °C for 15 min. After cooling to RT, absorbance at 540 nm was measured, and citrulline concentration was determined using a standard curve of citrulline standards. All studies were performed within the linear range of PADI4 activity, and data analysis was performed using Prism GraphPad (Dotmatics). Data are presented as the average ± standard error of the mean from at least two independent replicates.

human neutrophils = assay: Cholesterol crystal stimulation and NET preparation, immunoblot of citrullinated histone H3; assay type: cell-based; conditions: 50 µM peptide pre-incubated 1 h, 1 mg/ml cholesterol crystals
Procedure: Peripheral venous blood was isolated from consenting healthy adult volunteers in heparin tubes as previously described. Briefly, blood samples were on Histopaque 1119 (Sigma-Aldrich) and then centrifuged for 20 min at 800 × g. The plasma was collected and centrifuged for a second time for 20 min at 800 × g. The neutrophil layer was collected and washed in Hyclone Hank’s Balanced Salt Solution (HBSS) -Ca, -Mg, -Phenol red (GE Healthcare) supplemented with 10 mM HEPES (Invitrogen) 0.1% FBS and further purified with a discontinuous Percoll (GE Healthcare) gradient consisting of layers with densities of 85, 80, 75, 70 and 65% and centrifuged for 20 min at 800 × g. Neutrophil-enriched layers were then collected and washed, and neutrophil purity was assessed using flow cytometry.
About 1 × 10^6 human blood neutrophils were isolated as described in the “Human neutrophils from peripheral blood healthy donors” section. Neutrophils were seeded in 6 well plates in HBSS +Ca, +Mg, -Phenol red (GE Healthcare) containing 10 mM HEPES (Invitrogen), left to settle for 30 min, then pre-incubated with either 50 μM PADI4_3, PADI4_3i or DMSO (0.5%) for 1 h. […] NET DNA concentration was determined by Quant-iT Picogreen dsDNA reagent as per the manufacturer’s instructions (Thermo Fisher Scientific). […]

T1 sequence (Q9UM07 whole entry, the tested form may be a part): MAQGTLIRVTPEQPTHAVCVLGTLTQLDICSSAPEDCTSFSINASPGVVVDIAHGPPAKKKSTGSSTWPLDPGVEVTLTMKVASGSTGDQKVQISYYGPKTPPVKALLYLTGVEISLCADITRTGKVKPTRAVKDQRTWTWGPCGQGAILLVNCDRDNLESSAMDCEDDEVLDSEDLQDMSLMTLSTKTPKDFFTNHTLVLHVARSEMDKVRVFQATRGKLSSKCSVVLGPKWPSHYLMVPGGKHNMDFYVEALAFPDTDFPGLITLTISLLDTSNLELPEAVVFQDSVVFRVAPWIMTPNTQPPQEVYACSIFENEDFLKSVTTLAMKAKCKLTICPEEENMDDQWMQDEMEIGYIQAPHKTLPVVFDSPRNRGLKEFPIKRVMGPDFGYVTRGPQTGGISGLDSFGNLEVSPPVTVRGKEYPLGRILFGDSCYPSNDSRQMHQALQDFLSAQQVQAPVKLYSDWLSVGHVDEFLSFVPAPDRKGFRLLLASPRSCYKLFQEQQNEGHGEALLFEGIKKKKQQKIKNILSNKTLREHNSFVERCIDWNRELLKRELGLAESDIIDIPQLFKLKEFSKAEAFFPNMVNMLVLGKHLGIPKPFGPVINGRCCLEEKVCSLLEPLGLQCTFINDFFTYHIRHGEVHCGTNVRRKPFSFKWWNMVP
T2 sequence (Q9UM07 whole entry, the tested form may be a part): as above

binding to PADI4 (in words) (Bio-hPADI4 wt): did not bind
PADI4 inhibition (in words) (hPADI4): did not bind or inhibit PADI4
Structure (SMILES): N=C(N)NCCC[C@@H]1NC(=O)[C@H](CC(=O)O)NC(=O)[C@@H](Cc2ccc(O)cc2)NC(=O)CSC[C@@H](C(=O)NCC(N)=O)NC(=O)[C@H](Cc2ccc(O)cc2)NC(=O)[C@H](CCCCN)NC(=O)[C@@H]2CCCN2C(=O)[C@H](Cc2c[nH]cn2)NC(=O)[C@H](CCCNC(=N)N)NC(=O)[C@H](Cc2ccc(O)cc2)NC(=O)[C@H](Cc2c[nH]cn2)NC(=O)[C@H](Cc2c[nH]cn2)NC1=O [PADI4_3i] ({CH2CO}-[dY]DRHHYRHPKYCG-NH2; thioether N-12)
citrullination of histone 3 in NET preparations (human neutrophils): abolished by PADI4_3 but not PADI4_3i

— PMC11555231 (Nature Communications, 2024)
